Patent US20250375406A1, “TREATMENT OF NON-ALCOHOLIC STEATOHEPATITIS AND NON-ALCOHOLIC FATTY LIVER DISEASE” (VEROSCIENCE LLC, priority 2022, published 2025)

Legend:
[1] = test system: NASH Mice; test: Treatment of NASH mice (high fat high fructose diet) with bromocriptine citrate plus pantethine with or without curcumin, Study 1; assay type: in vivo; settings: vehicle value assigned 1.0 (maximum score); 6 weeks treatment
Description: The curcumin-phosphatidylcholine mixture is stirred until clear while being heated to between 50° C. to 60C. Optionally, add up to 10 ml of water and stir until solution is homogeneous)) (100 mg/kg). […] After 6 weeks on the test diet and treatment, animals were sacrificed for analyses of body weight, body fat, blood glucose, and liver physiology.

[2] = test system: NASH; test: L-DOPA plus pantethine with or without curcumin in high fat high fructose diet mice, Study 2 (Example 4); assay type: in vivo; settings: vehicle value assigned 1.0 (maximum score); 3 weeks treatment
From the text: After 3 weeks on the test diet, animals were sacrificed for analyses of body weight, body fat, blood glucose, and liver physiology.

Compound | NASH propensity scale score (liver weight x body weight x body fat x liver triglyceride content x blood glucose level) [1] | NASH propensity score (liver weight x body weight x body fat x blood glucose level) [2]
CC(C)C[C@H]1C(=O)N2CCC[C@H]2[C@]2(O)O[C@](NC(=O)[C@@H]3C=C4c5cccc6[nH]c(Br)c(c56)C[C@H]4N(C)C3)(C(C)C)C(=O)N12 [bromocriptine, 2-bromo-α-ergocriptine] | 0.46 | 
N[C@@H](Cc1ccc(O)c(O)c1)C(=O)O [L-DOPA, 3,4-dihydroxyphenylalanine] |  | 0.61
